Measurements taken from US12685738B2, “Inotodiol as agonist of liver x receptors, and use thereof” (CARBOEXPERT INC., priority 2020, dated 2026).
Values joined by “and” are separate entries in the source; they are usually repeats but may differ in a detail not shown here. Identical values can stand only once. Like-named read-outs stand apart in the source and are kept apart here.

What was measured:
[1] = Inotodiol concentrations in blood and brain tissue (LC/MS); assay type: in vivo, Balb/c mice; details: 4.5 mg/kg orally for 10 days, sampled day 11; for concentration at 11 day: 4.5 mg/kg
Procedure: When inotodiol was administered to mice, the concentrations of inotodiol detected in blood and brain tissue of the mice were analyzed.
Specifically, 7-week-old Balb/c mice were supplied and acclimatized for 1 week, and then 4 mice per group were assigned to conduct experiments. Mice were grouped into: four controls not administered with inotodiol; and four groups administered with inotodiol. In the groups administered with inotodiol, 4.5 mg/kg of inotodiol was orally administered for 10 days. On day 11, the controls and inotodiol-administered mice were sacrificed, and blood and brain tissue samples were prepared.
First, to analyze the concentration of inotodiol in blood, 20 μL of serum was transferred to a 1.5 mL Eppendorf tube, and then inotodiol was extracted twice in ethanol. In each extraction step, 200 μL of ethanol was mixed with serum and the mixture was sonicated for 10 minutes, followed by centrifugation at 14000×g for 15 minutes.
To analyze the concentration of inotodiol in brain tissue, the whole brain was weighed and mixed with 10-fold (v/w) 100% ethanol, and then the mixture was sonicated and centrifuged.
After centrifugation, each residue was reconstituted with 0.5 mL of 60% methanol for solid phase extraction by using a C18 cartridge (Sep-Pak C18 3 cc Vac Cartridge, 200 mg adsorbent, Waters). Samples were loaded into cartridges and activated using methanol (6 mL), followed by conditioning with 60% methanol (6 mL). The cartridges were then washed with 6 mL of 60% methanol. Then, inotodiol was collected by eluting the cartridges with 100% methanol (3 mL) in glass tubes. After evaporation of each sample, the residue was dissolved in methanol and subjected to LC/MS analysis.

TNF-α = TNF-α ELISA in arthritic animals; assay type: in vivo, mouse; details: arthritic animals administered with inotodiol; FIG. 8
Procedure: Next, the expression of TNF-α, which is a factor that activates inflammation, was confirmed. […] Then, the coating buffer was removed, followed by washing three times with 200 μL of washing buffer (0.05% Tween20/PBS). To prevent non-specific binding, a reaction with 200 μL of a blocking solution (1% BSA/PBS) was allowed to occur at room temperature for 1 hour. Washing was performed three times using a washing buffer. A standard material (Biolgend) and each sample were diluted using a blocking solution, and then 100 μL of each thereof was dispensed, and a reaction was allowed to occur therein at room temperature for 2-4 hours. Washing was performed three times using a washing buffer. A secondary antibody (biotin-labeled detection antibody, biolegend) was diluted to 0.25-2 μg/mL using a blocking solution, and then 100 μl thereof was dispensed and a reaction was allowed to occur therein at room temperature for 1 hour. Washing was performed three times using a washing buffer. Avidin-Horseradish peroxidase (Biolegend) was diluted 1/1000 times using a blocking solution, then 100 μL thereof was dispensed and a reaction was allowed to occur therein at room temperature for 30 minutes. Washing was performed 5 times using a washing buffer. […] An ELISA plate was examined at 450 nm using an EPOCH microplate reader (Biotek).

[2] = Two-week mouse toxicity test: health signs and total fat content of liver; details: for changes in total fat content of the liver: male and female mice, 2 weeks
Procedure: If inotodiol is a LXR-α agonist, inotodiol overexpresses Srebf1 in the liver, thereby inducing fatty liver. Selectivity for LXRs and safety of inotodiol were evaluated through a two-week mouse toxicity test.
Specifically, the inotodiol emulsion was orally administered to male and female ICR mice in an amount of 0.0 mg/kg (group 1), 5.0 mg/kg (group 2), and 20 mg/kg (group 3) once a day for 2 weeks. […] As a control, 100% olive oil was administered.

ABCA1 = assay: Real-time PCR of ABCA1 gene expression in brain tissue; assay type: in vivo, Balb/c mice; details: Ino (10 mpk) vs control (Naïve); groups prepared as in Example 3; FIG. 6A
Procedure: (§1) When inotodiol was administered to mice, the expression of ABCA1 and APOE in brain tissue, which are genes related to neurodegenerative brain diseases, was analyzed.
(§2) Specifically, as in Example 3, controls and inotodiol-administered mouse groups were prepared, and then, to extract total RNA, first, 50 mg of brain tissue samples were quantified, and then cells were crushed using a mortar. 1 mL of Trizol was dispensed into each crushed sample and mixed by vortexing. Then, 0.2 mL of chloroform was dispensed and a reaction was allowed to occur therein at room temperature for 3 minutes. The reaction product was centrifuged at 12,000 rpm and 4° C. for 15 minutes, and then only the transparent supernatant was transferred to a new tube. Thereafter, 0.5 mL of isopropyl alcohol was dispensed, and then a reaction was allowed to occur therein at room temperature for 10 minutes. The resultant was centrifuged 12,000 rpm and 4° C. for 10 minutes, and then the supernatant was completely removed, and impurities were removed using 1 mL of 75% ethanol. […] Each sample was dissolved using DEPC water, and then total RNA was quantified to 1000 ng/μL using Nanodrop, and cDNA synthesis was performed using primeScript RT Master Mix (Takara Korea). […]

APOE = assay: Real-time PCR of APOE gene expression in brain tissue; assay type: in vivo, Balb/c mice; details: Ino (10 mpk) vs control (Naïve); groups prepared as in Example 3; FIG. 6B
Procedure: as §1, §2

rheumatoid arthritis = assay: Bovine type II collagen-induced arthritis, macroscopic arthritic score; assay type: in vivo, male DBA/1J mice; details: 4 mg/kg or 10 mg/kg orally once a day for 4 weeks; vs arthritic animals not administered; FIG. 7
[3] = test system: LXR-related markers (Abca1, Srebf1_1C, AQP1, ApoE1); assay: In vivo qPCR analysis of effect of inotodiol on LXR-related markers; parameters: species or system mice (BALB/cAnNTacSam)
Procedure: The effect of inotodiol on Abca1, Srebf1_1C, AQP1, and ApoE1, which are LXR-related markers, was analyzed.
First, an inotodiol emulsion for administration at a dose of 4 mg/kg was prepared. Specifically, an emulsion was prepared by mixing inotodiol with 10% of olive oil (Monini, Classico extra virgin olive oil), 0.5% of tween 80, and sterile water. Subsequently, each 0.15 mL of the prepared emulsion was administered to BALB/cAnNTacSam (Sam Taco Bio Korea Co., Ltd.) for 5 days. After 5 days of administration, mice were euthanized, and then spleen, lung, liver and peritoneal cell samples were isolated.
Next, to perform qPCR on the isolated samples, total RNA was extracted using a Bead™ Total RNA Prep Kit (BioFACT™) sample. Thereafter, primers for Abca1, Srebf1_1C, AQP1, and ApoE1 were used, the reaction reagent for qPCR was 2× Real-Time PCR Master Mix (BioFACT™), and the equipment used for qPCR was AriaMx Real-time PCR. The qPCR conditions were as follows: at 95° C. for 15 minutes, and 50 cycles at 95° C. for 20 seconds, 55° C. for 30 seconds, and 72° C. for 0.5-1 min/kb, and for the melting curve, 1 cycle was performed at 95° C. for 30 seconds, 65° C. for 30 seconds, and 95° C. for 30 seconds, and relative mRNA expression was measured.

[4] = inotodiol emulsion 4 mg/kg for 5 days, various samples (FIGS. 1 to 5), vs untreated control
[5] = liver sample, 4 mg/kg for 5 days

CC(C)=CC[C@@H](O)[C@@H](C)[C@H]1CC[C@@]2(C)C3=C(CC[C@]12C)[C@@]1(C)CC[C@H](O)C(C)(C)[C@@H]1CC3 [inotodiol, (3S,5R,10S,13R,14R,17R)-17-[(2S,3R)-3-hydroxy-6-methylhept-5-en-2-yl]-4,4,10,13,14-pentamethyl-2,3,5,6,7,11,12,15,16,17-decahydro-1H-cyclopenta[a]phenanthren-3-ol]
Inotodiol concentration (ng/g) Brain, individual mice [1]: 177.1 ng/g and 133.3 ng/g and 135.0 ng/g
Inotodiol concentration (ng/g) Brain, Average ([1]; 4 mice): 151.7 ± 21.3 ng/g
Inotodiol concentration (ng/g) Blood, Average ([1]; 4 mice, serum): 12.1 ± 1.3 ng/g
Inotodiol concentration (ng/g) Blood, individual mice ([1]; serum): 10.5 ng/g and 14.2 ng/g and 11.8 ng/g
Kp at 11 day ([1]; Balb/c, mouse, brain / blood (serum), oral, read-out: inotodiol detected in the brain relative to blood): ~12
concentration at 11 day ([1]; Balb/c, mouse, brain, oral, 4 mice, read-out: Inotodiol concentration (ng/g) Brain, Average): 152 ± 21.3 ng/g
concentration at 11 day ([1]; Balb/c, mouse, brain, oral, read-out: Inotodiol concentration (ng/g) Brain, individual mice): 161 ng/g
concentration at 11 day ([1]; Balb/c, mouse, serum, oral, 4 mice, serum, read-out: Inotodiol concentration (ng/g) Blood, Average): 12.1 ± 1.3 ng/g
concentration at 11 day ([1]; Balb/c, mouse, serum, oral, serum, read-out: Inotodiol concentration (ng/g) Blood, individual mice): 12.2 ng/g
TNF-α expression (ELISA) (TNF-α): lower level
Total fat (%) in mouse liver, Average ([2]; Female, Group 2 (5.0 mg/kg oral once a day for 2 weeks)): 3.24%
Total fat (%) in mouse liver, individual animal analyses ([2]; Female, Group 2 (5.0 mg/kg oral once a day for 2 weeks), 5 mg/kg): 2.96% and 3.08% and 2.80% and 2.72% and 3.45% and 3.57% and 3.03% and 3.10% and 4.42% and 3.82% and 2.85% and 3.09%
Total fat (%) in mouse liver, Average ([2]; Female, Group 3 (20 mg/kg oral once a day for 2 weeks)): 3.56%
Total fat (%) in mouse liver, individual animal analyses ([2]; Female, Group 3 (20 mg/kg oral once a day for 2 weeks), 20 mg/kg): 4.01% and 4.03% and 3.49% (2×) and 2.69% and 2.94% and 3.09% and 3.19% and 3.16% and 3.23% and 4.77% and 4.62%
Total fat (%) in mouse liver, Average ([2]; Male, Group 2 (5.0 mg/kg oral once a day for 2 weeks)): 3.23%
Total fat (%) in mouse liver, individual animal analyses ([2]; Male, Group 2 (5.0 mg/kg oral once a day for 2 weeks), 5 mg/kg): 3.39% and 3.25% and 3.48% and 3.47% and 2.83% and 2.72% and 2.86% and 3.78% and 3.19% and 3.17% and 3.18% and 3.43%
Total fat (%) in mouse liver, Average ([2]; Male, Group 3 (20 mg/kg oral once a day for 2 weeks)): 3.27%
Total fat (%) in mouse liver, individual animal analyses ([2]; Male, Group 3 (20 mg/kg oral once a day for 2 weeks), 20 mg/kg): 3.38% and 3.52% and 3.44% and 3.47% and 3.07% and 3.10% and 3.23% and 3.30% and 3.36% and 3.41% and 2.99% and 2.93%
changes in total fat content of the liver ([2]; dose of 5 mg/kg): no significant changes
changes in total fat content of the liver ([2]; dose of 20 mg/kg): no significant changes
signs of abnormal health ([2]; oral, 5.0 and 20 mg/kg once a day for 2 weeks, male and female ICR mice): No signs of abnormal health
ABCA1 gene expression in brain tissue (ABCA1): highly expressed
APOE gene expression in brain tissue (APOE): highly expressed
macroscopic arthritic score (maximum score=16) (rheumatoid arthritis): lower
expression of AQP1 (relative mRNA expression) [3, 4]: increases
expression of Abca1 (relative mRNA expression) [3, 4]: increases
expression of ApoE1 (relative mRNA expression) [3, 4]: increases
expression of Srebf1 (relative mRNA expression) [3, 4]: increases
expression of AQP1, regulated by LXR-β [3, 5]: significant increase
expression of Srebf1, specifically regulated by LXR-α [3, 5]: no significant increase
LXR-α / LXR-β selectivity inferred from marker expression ([3]; liver sample, inferred from Srebf1 and AQP1 expression): does not bind well to LXR-α and acts as an agonist by more specifically binding to LXR-β
